In PMC8177097 (FEBS letters, 2020):

Key:
lipocalin Blc (wtBlc) [1] = target: T1, lipocalin Blc (wtBlc) (Escherichia coli, UniProt P0A901); test: tryptophan fluorescence quenching titration; format: binding
T1 sequence (P0A901 19-177): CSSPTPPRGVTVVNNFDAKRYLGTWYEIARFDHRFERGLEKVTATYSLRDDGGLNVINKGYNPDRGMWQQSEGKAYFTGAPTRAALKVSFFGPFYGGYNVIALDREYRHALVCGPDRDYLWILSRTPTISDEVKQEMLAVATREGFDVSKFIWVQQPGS

lipocalin Blc (wtBlc) [2] = target: T1, lipocalin Blc (wtBlc); test: spectrophotometric hemin titration; format: binding

Row | Kd (lipocalin Blc (wtBlc) [1]) [nM] | Kd (lipocalin Blc (wtBlc) [2]) [nM] | Structure (SMILES)
1 | 0.14 ± 0.1 |  | CC1=C(CCC(=O)O)c2cc3[nH]c(cc4nc(cc5[nH]c(cc1n2)c(C)c5C(C)O)C(C)=C4C(C)O)c(C)c3CCC(=O)O (centres unmarked) [HP, hematoporphyrin]
2 |  | 1400 ± 300 | C=CC1=C(C)C2=Cc3c(C=C)c(C)c4[n]3[Fe][n]3c(c(C)c(CCC(=O)O)c3=CC3=NC(=C4)C(C)=C3CCC(=O)O)=CC1=N2 [heme]
